Laboratory results published in patent US11066425B1, “Oxo-substituted compound” (SUMITOMO DAINIPPON PHARMA CO., LTD., priority 2018, dated 2021).
Where a name gives a salt, the structure may show the parent alone.

Tested on: β-lactamase producing bacteria
Assay: Test Example 1: MIC of meropenem (MEPM) combined with test compound at fixed 4 μg/mL, broth microdilution
Format: cell-based
Conditions: relative to MEPM alone
Protocol: Test Example 1: Evaluation of Minimum Inhibitory Concentration (MIC) of MEPM Against β-Lactamase Producing Bacteria
To evaluate the β-lactamase inhibitory activity of test compounds, the effect of combination of a test compound and a β-lactam agent against β-lactamase producing bacteria was evaluated. Meropenem (MEPM) was used as a β-lactam antimicrobial agent. The minimum inhibitory concentration (MIC) of MEPM against β-lactamase producing bacteria when a test compound was added at a fixed concentration (4 μg/mL) was measured by broth microdilution method (common ratio: 2). MIC of MEPM decreasing to less than 1/32 in combination with a test compound is indicated by A, decreasing from 1/32 to 1/16 is indicated by B, decreasing from ⅛ to ¼ is indicated by C, and decreasing to ½ or others are indicated by D. “-” represents untested cases.

Compound	Decrease of MIC of MEPM in combination with a test compound, E. coli ATCC BAA-2340 (KPC)	Decrease of MIC of MEPM in combination with a test compound, K. pneumoniae ATCC BAA-2344 (KPC)	Decrease of MIC of MEPM in combination with a test compound, K. pneumoniae ATCC BAA-2524 (OXA-48)
CC(=O)N1CC(Oc2ccc3c(c2C(=O)O)OB(O)CC3)C1 [Example 1, 7-[(1-acetylazetidin-3-yl)oxy]-2-hydroxy-3,4-dihydro-2H-1,2-benzoxaborinine-8-carboxylic Acid]	A (MIC of MEPM decreasing to less than 1/32 in combination with a test compound is indicated by A)	A (MIC of MEPM decreasing to less than 1/32 in combination with a test compound is indicated by A)	B (decreasing from 1/32 to 1/16 is indicated by B)
O=C(O)c1c(OC2CN(C(=O)Cc3cnc[nH]3)C2)ccc2c1OB(O)CC2 [Example 2, 2-hydroxy-7-({1-[(1H-imidazol-5-yl)acetyl]azetidin-3-yl}oxy)-3,4-dihydro-2H-1,2-benzoxaborinine-8-carboxylic Acid Hydrochloride]	A (MIC of MEPM decreasing to less than 1/32 in combination with a test compound is indicated by A)	A (MIC of MEPM decreasing to less than 1/32 in combination with a test compound is indicated by A)	B (decreasing from 1/32 to 1/16 is indicated by B)
CS(=O)(=O)N1CC(Oc2ccc3c(c2C(=O)O)OB(O)CC3)C1 [Example 3, 2-hydroxy-7-{[1-(methanesulfonyl)azetidin-3-yl]oxy}-3,4-dihydro-2H-1,2-benzoxaborinine-8-carboxylic]	A (MIC of MEPM decreasing to less than 1/32 in combination with a test compound is indicated by A)	A (MIC of MEPM decreasing to less than 1/32 in combination with a test compound is indicated by A)	B (decreasing from 1/32 to 1/16 is indicated by B)
N[C@@H](C(=O)N1CC(Oc2ccc3c(c2C(=O)O)O[B-](O)(O)CC3)C1)c1ccc(O)cc1 [Example 4, 8-({1-[(2R)-2-amino-2-(4-hydroxyphenyl)acetyl]azetidin-3-yl}oxy)-4,4-dihydroxy-5-oxa-4-boranuidabicyclo[4.4.0]deca-l(6),7,9-triene-7-carboxylic Acid Disodium Salt]	A (MIC of MEPM decreasing to less than 1/32 in combination with a test compound is indicated by A)	A (MIC of MEPM decreasing to less than 1/32 in combination with a test compound is indicated by A)	A (MIC of MEPM decreasing to less than 1/32 in combination with a test compound is indicated by A)
CON=C(C(=O)N1CC(Oc2ccc3c(c2C(=O)O)OB(O)CC3)C1)c1csc(N)n1 [Example 5, 7-({1-[(2-amino-1,3-thiazol-4-yl)(methoxyimino)acetyl]azetidin-3-yl}oxy)-2-hydroxy-3,4-dihydro-2H-1,2-benzoxaborinine-8-carboxylic acid]	A (MIC of MEPM decreasing to less than 1/32 in combination with a test compound is indicated by A)	B (decreasing from 1/32 to 1/16 is indicated by B)	C (decreasing from ⅛ to ¼ is indicated by C)
Cl.O=C(O)c1c(OC2CN(C(=O)c3ccccn3)C2)ccc2c1OB(O)CC2 [Example 6, 2-hydroxy-7-{[1-(pyridine-2-carbonyl)azetidin-3-yl]oxy}-3,4-dihydro-2H-1,2-benzoxaborinine-8-carboxylic acid hydrochloride]	A (MIC of MEPM decreasing to less than 1/32 in combination with a test compound is indicated by A)	A (MIC of MEPM decreasing to less than 1/32 in combination with a test compound is indicated by A)	B (decreasing from 1/32 to 1/16 is indicated by B)
CSCC(=O)N1CC(Oc2ccc3c(c2C(=O)O)O[B-](O)(O)CC3)C1 [Example 7, 4,4-dihydroxy-8-({1-[(methylsulfanyl)acetyl]azetidin-3-yl}oxy)-5-oxa-4-boranuidabicyclo[4.4.0]deca-l(6),7,9-triene-7-carboxylic acid disodium salt]	A (MIC of MEPM decreasing to less than 1/32 in combination with a test compound is indicated by A)	A (MIC of MEPM decreasing to less than 1/32 in combination with a test compound is indicated by A)	B (decreasing from 1/32 to 1/16 is indicated by B)
O=C(O)c1c(OC2CN(C(=O)c3nc[nH]n3)C2)ccc2c1O[B-](O)(O)CC2 [Example 8, 4,4-dihydroxy-8-{[1-(1H-1,2,4-triazole-3-carbonyl)azetidin-3-yl]oxy}-5-oxa-4-boranuidabicyclo[4.4.0]deca-l(6),7,9-triene-7-carboxylic acid disodium salt]	A (MIC of MEPM decreasing to less than 1/32 in combination with a test compound is indicated by A)	A (MIC of MEPM decreasing to less than 1/32 in combination with a test compound is indicated by A)	B (decreasing from 1/32 to 1/16 is indicated by B)
O=C(O)c1c(OC2CN(C(=O)c3cccc[n+]3[O-])C2)ccc2c1O[B-](O)(O)CC2 [Example 9, 4,4-dihydroxy-8-{[1-(1-oxido-2-pyridinylcarbonyl)azetidin-3-yl]oxy}-5-oxa-4-boranuidabicyclo[4.4.0]deca-l(6),7,9-triene-7-carboxylic acid disodium salt]	A (MIC of MEPM decreasing to less than 1/32 in combination with a test compound is indicated by A)	A (MIC of MEPM decreasing to less than 1/32 in combination with a test compound is indicated by A)	A (MIC of MEPM decreasing to less than 1/32 in combination with a test compound is indicated by A)
N[C@@H](C(=O)N1CC(Oc2ccc3c(c2C(=O)O)O[B-](O)(O)CC3)C1)c1ccccc1 [Example 10, 8-({1-[(2R)-2-amino-2-phenylacetyl]azetidin-3-yl}oxy)-4,4-dihydroxy-5-oxa-4-boranuidabicyclo[4.4.0]deca-l(6),7,9-triene-7-carboxylic acid disodium salt]	A (MIC of MEPM decreasing to less than 1/32 in combination with a test compound is indicated by A)	A (MIC of MEPM decreasing to less than 1/32 in combination with a test compound is indicated by A)	B (decreasing from 1/32 to 1/16 is indicated by B)
O=C(O)c1c(OC2CN(C(=O)c3ccccc3)C2)ccc2c1O[B-](O)(O)CC2 [Example 11, 8-[(1-benzoylazetidin-3-yl)oxy]-4,4-dihydroxy-5-oxa-4-boranuidabicyclo[4.4.0]deca-l(6),7,9-triene-7-carboxylic acid disodium salt]	A (MIC of MEPM decreasing to less than 1/32 in combination with a test compound is indicated by A)	B (decreasing from 1/32 to 1/16 is indicated by B)	B (decreasing from 1/32 to 1/16 is indicated by B)
O=C(O)c1c(OC2CN(C(=O)c3cccnc3)C2)ccc2c1O[B-](O)(O)CC2 [Example 12, 4,4-dihydroxy-8-{[1-(pyridine-3-carbonyl)azetidin-3-yl]oxy}-5-oxa-4-boranuidabicyclo[4.4.0]deca-l(6),7,9-triene-7-carboxylic acid disodium salt]	A (MIC of MEPM decreasing to less than 1/32 in combination with a test compound is indicated by A)	A (MIC of MEPM decreasing to less than 1/32 in combination with a test compound is indicated by A)	B (decreasing from 1/32 to 1/16 is indicated by B)
O=C(O)c1c(OC2CN(C(=O)Cc3ccccn3)C2)ccc2c1O[B-](O)(O)CC2 [Example 13, 4,4-dihydroxy-8-({1-[(pyridin-2-yl)acetyl]azetidin-3-yl}oxy)-5-oxa-4-boranuidabicyclo[4.4.0]deca-l(6),7,9-triene-7-carboxylic acid disodium salt]	A (MIC of MEPM decreasing to less than 1/32 in combination with a test compound is indicated by A)	A (MIC of MEPM decreasing to less than 1/32 in combination with a test compound is indicated by A)	B (decreasing from 1/32 to 1/16 is indicated by B)
